Converted amounts (≈) assume the structure as drawn. Like-named read-outs stand apart in the source and are kept apart here.
Columns and labels:
HSV-2 = experiment: In vitro antiviral screening, CPE inhibition in HFF cells; type: cell-based, herpes simplex virus 2; settings: Human alphaherpesvirus 2, HFF; HSV-2, CPE Inhibition
[1] = tested on: rabbit corneal cell line (SIRC); settings: SIRC cells
[2] = New Zealand albino, rabbit
Aqueous solubility = type: physicochemical
hPEPT1 = molecular target: T1, hPEPT1 (Homo sapiens, UniProt P46059); experiment: [3H] Glycylsarcosine uptake and its inhibition in Caco-2 cells (affinity towards peptide transporter); type: cell-based; settings: for Ki: read-out: Ki
T1 construct: endogenous in cells; host or cells: Caco-2 (human colon carcinoma, ATCC)
T1 sequence (P46059 1-708): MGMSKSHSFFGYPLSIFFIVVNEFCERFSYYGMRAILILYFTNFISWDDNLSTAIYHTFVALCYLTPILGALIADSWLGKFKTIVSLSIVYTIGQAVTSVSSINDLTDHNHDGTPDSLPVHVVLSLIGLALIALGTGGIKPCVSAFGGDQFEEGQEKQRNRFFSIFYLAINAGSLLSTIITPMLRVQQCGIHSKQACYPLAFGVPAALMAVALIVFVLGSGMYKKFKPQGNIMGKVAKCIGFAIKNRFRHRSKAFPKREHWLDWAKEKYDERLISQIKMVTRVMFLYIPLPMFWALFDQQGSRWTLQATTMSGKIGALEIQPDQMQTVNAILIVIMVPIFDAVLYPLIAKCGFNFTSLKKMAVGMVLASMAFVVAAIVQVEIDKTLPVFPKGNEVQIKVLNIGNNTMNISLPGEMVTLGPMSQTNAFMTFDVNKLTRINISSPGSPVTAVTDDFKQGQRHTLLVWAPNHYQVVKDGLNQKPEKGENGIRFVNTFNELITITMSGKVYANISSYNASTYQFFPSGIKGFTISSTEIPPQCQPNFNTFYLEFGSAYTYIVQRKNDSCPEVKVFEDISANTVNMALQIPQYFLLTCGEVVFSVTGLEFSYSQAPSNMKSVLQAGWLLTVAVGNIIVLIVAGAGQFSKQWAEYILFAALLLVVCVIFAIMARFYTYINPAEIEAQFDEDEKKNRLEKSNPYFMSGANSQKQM
Description: Materials: [^3H] Glycylsarcosine (Gly-Sar; 4 Ci/mmol) was purchased from Moravek Biochemicals (Brea, Calif.) and [^14C] Mannitol (50 mCi/mmol) was supplied by Amersham (Piscataway, N.J.). Human colon carcinoma derived Caco-2 cells were obtained from American Type Culture Collection (ATCC, Rockville, Md.). The growth medium, Dulbecco's modified Eagle Medium was obtained from Life Technologies (Grand Island, N.Y.). […] Fetal bovine serum (FBS) was purchased from JRH Biosciences (Lenexa, Kans.). Culture flasks (75 cm^2 growth area), polyester Transwells® (pore size 0.4 Cm with diameter 6.5 mm) and polyester membranes (pore size 0.4 Cm) were procured from Costar (Bedford, Mass.). The buffer components and solvents were obtained from Fisher Scientific (St. Louis, Mo.). All the di-peptide esters of acyclovir were custom synthesized in our laboratory. […] Cell Culture: All cultures were maintained in humidified incubator at 37° C. with a 5% carbon dioxide in air atmosphere. Caco-2 cells were obtained at passage 25 from American Type Culture Collection (ATCC) and grown in plastic tissue culture flasks. […] When 80% confluent, these cells were removed by treating them with Trypsin/EDTA and plated at a density of 100,000 cells/cm^2 on collagen coated plastic dishes containing clear polyester membranes (0.636 cm^2, […]) or 12-well tissue culture treated plastic plates. Cells were then grown in medium containing 10% FBS (heat-inactivated). […] [^14C] […] Metabolism studies in Cell Suspensions: Confluent Caco-2 cells, grown in tissue culture flasks were isolated with the aid of mechanical scraper and washed thrice with DPBS. […] One-hundred micro-liters of samples were withdrawn at predetermined time intervals and the sample was purified by precipitating the cellular proteins into the organic solvent mixture and stored at −80° C. until further analysis. The protein content of the cell suspension was determined by the method of Bradford using bovine serum albumin as the standard (BioRad protein estimation kit, Hercules, Calif.). […] Transport studies: Transport experiments were done using Side-Bi-Side™ diffusion cells (type VSC-1, Crown Glass Company Inc.) and Transwell® inserts. Prior to the experiment with Gly-Sar, Caco-2 cell monolayers grown on the clear polyester membranes and Transwell® inserts were washed with DPBS (pH 6.0) and incubated at 37° C. Freshly prepared drug solutions in DPBS (pH 6.0) was placed in the donor chamber and the receiver chamber was filled with DPBS. The volumes of donor and receptor chambers were 3 ml each for Side-Bi-Side™ diffusion cells and 0.5 ml and 1.5 ml respectively for Transwell® inserts. […] The samples were stored at −80° C. until analyzed HPLC. All experiments were performed at 37° C. […] The concentration dependent uptake of glycylsarcosine was studied using [^3H] […] For Dixon plots and Dose Response studies [^3H] […] Following incubation, the cell monolayers were washed three times with ice-cold HEPES buffer to terminate the uptake experiment. After the washings cells were lysed overnight using 1 ml 0.1% (w/v) Triton X-100 in 0.3 N NaOH at room temperature. Aliquots (500 μl) from each well were then transferred to scintillation vials containing 5 ml scintillation cocktail (Fisher Scientific, Fairlawn, N.J.). […] The amount of protein in the cell lysate was measured by the BioRad protein estimation kit using bovine serum albumin as standard (BioRad Protein estimation Kit, Hercules, Calif.). Analytical Procedures: All samples were assayed using HPLC. […] The column used was a C18 Luna column 4.6×250 mm (Phenomenex). The mobile phase consisted of a mixture of buffer and an organic modifier. The percentage of organic phase was varied in order to elute compounds of interest.

HSV-1 = experiment: In vitro antiviral screening, CPE inhibition in HFF cells; type: cell-based, herpes simplex virus 1; settings: Human alphaherpesvirus 1, HFF
EBV = experiment: In vitro antiviral screening, VCA Elisa; type: cell-based, epstein-barr virus; settings: human gammaherpesvirus 4; EBV, VCA Elisa
in vitro [3] = settings: New Zealand albino, rabbit
[4] = tested on: oligopeptide transporter on the rabbit cornea; settings: +10 mM of the ester
in vitro [5] = settings: human, Caco-2, pH 7.4
Caco-2 cell suspension = Caco-2 cell suspension at pH 7.4; * = no intact drug detected during the experiment
[6] = Corneal permeation across freshly excised rabbit cornea; settings: New Zealand albino

Nc1nc2c(ncn2COCCO)c(=O)[nH]1 [ACV, 2-amino-1,9-dihydro-9-[(2-hydroxyethoxy)methyl]-6H-purin-6-one]
EC50 (HSV-2): 6.6 µM
percent survival ([1]; 0.025 mM): 94.71%
percent survival ([1]; 0.1 mM): 89.41%
percent survival ([1]; 0.5 mM): 69.81%
percent survival ([1]; 1 mM): 57.37%
% viable cells ([1]; 5 mM): 49.1±4.2%
percent survival ([1]; 5 mM): 49.12%
Papp [2]: 4.24 ×10⁻⁶ cm/s
solubility (Aqueous solubility; 25° C.): 2500 µg/mL (≈ 11.1 mM)
solubility (Aqueous solubility; aqueous medium, 37° C., read-out: saturable solubility): 2000 µg/mL (≈ 8.88 mM)
effect on the uptake of [3H] Gly-Sar (hPEPT1; Caco-2, pH 6.0, 10 minutes): did not inhibit
EC50 (HSV-1; read-out: EC50 (concentration required to inhibit viral cytopathogenicity by 50%), HSV-1, CPE Inhibition): 7.1 µM
EC50 (HSV-1; HSV-1, running text, read-out: EC50 against HSV-1): 7.1 µM
EC50 (EBV): 7.5 µM
Papp (in vitro [3]): 4.24 ± 1.41 ×10⁻⁶ cm/s

CC(C)C(NC(=O)C(N)Cc1ccc(O)cc1)C(=O)OCCOCn1cnc2c(=O)[nH]c(N)nc21 (stereo not drawn) [Tyr-Val-ACV]
Papp (% Control) of [3H] Val-ACV [4]: 31.1 (±9.5) % Control
half-life at 0.2 mM (in vitro [5]): 6.9 ± 0.3 min
10^2 × kobs (Caco-2 cell suspension): 10.1 ± 0.46 min^−1mg^−1 protein
hydrolytic rate constant k (Aqueous Humor): 2.3 (±0.11) k × 10^3 min^−1 mg^−1 protein
hydrolytic rate constant k (Cornea homogenate): 4.9 (±0.69) k × 10^3 min^−1 mg^−1 protein
hydrolytic rate constant k (Iris-Ciliary Body homogenate): 5.3 (±0.74) k × 10^3 min^−1 mg^−1 protein
hydrolytic rate constant k (Lens homogenate): 3.1 (±0.63) k × 10^3 min^−1 mg^−1 protein
hydrolytic rate constant k (Vitreous Humor): 1.7 (±0.56) k × 10^3 min^−1 mg^−1 protein
Vmax of Gly-Sar uptake in presence of the drug (hPEPT1; Gly-Sar with drug (10 mM), Lineweaver-Burk): 0.091 ± 0.07 µmol/min/mg
Ki (hPEPT1; Lineweaver-Burk): 4110 ± 320 µM
Ki (hPEPT1; Michaelis-Menten): 4960 ± 970 µM
Papp at 3 h [6]: 7.19 ×10⁻⁶ cm/s

Source: patent US20090149482A1, “STEREOCHEMICALLY DEFINED DIPEPTIDE ESTERS OF ANTIVIRAL AGENTS FOR ENHANCED OCULAR TREATMENT” (priority 2001, published 2009)
